The record followed here is paper PMC11174122 (Molecules, 2024).

Test [1] concerns MCF-7. Description: MTT cytotoxic activity assay, MCF-7. Type of test: cell-based. To be noted: Homo sapiens, MCF7, 48 h. The protocol:
(§1) MCF-7, Hela, and HUCEC were cultured in DMEM (Beijing Solarbio) containing 10% FBS, 100 U/mL penicillin, and […] at 37 °C and 5% CO2. Bel-7402, A549, PC-3M were cultured in RPMI-1640 (Beijing Solarbio) media supplemented with 10% FBS (Wuhan Punuosai Life Science and Technology Co., Ltd., Wuhan, China), 100 U/mL penicillin, and […] at 37 °C and 5% CO2. MTT (Beijing Solarbio) was prepared with PBS at a concentration of 5 mg/mL. All tested drugs were prepared in a solution with a concentration of 20 mM, with dimethyl sulfoxide as the solvent.
(§2) The cells were inoculated into 96-well plates at a density of 5 × 10^3 cells/well. When the cell fusion reached 70–80%, the drug was treated for 48 h. Subsequently, 20 μL MTT was added to each well and incubated at 37 °C with 5% CO2 for 4 h. After that, the medium was discarded and 150 μL DMSO was added to each well. The absorbance was measured at 490 nm with an enzymoleter.
(Tetrazolium dyes change colour on reduction, which living cells bring about.)

The subject of test [2] is Hela. The test is described as follows: MTT cytotoxic activity assay, Hela. The format is cell-based, human. To be noted: Homo sapiens, HeLa; MTT, 48 h. On the procedure:
as §1, §2

In test [3] the test system is A549. The test is described as follows: MTT cytotoxic activity assay, A549. Type of test: cell-based. To be noted: Homo sapiens, 48 h. The protocol: as §1, §2
Test [4] concerns Bel-7402. Description: MTT cytotoxic activity assay, Bel-7402. The format is cell-based. To be noted: Homo sapiens, 48 h. On the procedure: as §1, §2
In test [5] the test system is PC-3M. The test is described as follows: MTT cytotoxic activity assay, PC-3M. The following applies: Homo sapiens. The format is cell-based. On the procedure: as §1, §2

Like-named read-outs stand apart in the source and are kept apart here. Bounds are passed on as bounds.

Take `CC(C)C[C@H](NC(=O)OC(C)(C)C)C(=O)Oc1ccc(/C=C/C(=O)c2ccc(OC(=O)[C@H](CC(C)C)NC(=O)OC(C)(C)C)cc2O)cc1` [Compound 1, (E)-4-(3-(4-(((tert-butoxycarbonyl)leucyl)oxy)-2-hydroxyphenyl)-3-oxoprop-1-en-1-yl)phenyl (tert-butoxycarbonyl)leucinate]: the IC50 (in general, the concentration needed to halve the response being measured) in test [1] is above 200 µM; in test [2], above 200 µM; in test [3], above 200 µM; in test [4] it was above 200 µM; in test [5] (read-out: IC50 PC-3M, 48 h), above 200 µM.

`CCC(C)CC(NC(=O)OC(C)(C)C)C(=O)Oc1ccc(/C=C/C(=O)c2ccc(OC(=O)C(CC(C)CC)NC(=O)OC(C)(C)C)cc2O)cc1` (stereo not drawn) [Compound 2, (E)-4-(3-(4-((2-((tert-butoxycarbonyl)amino)-4-methylhexanoyl)oxy)-2-hydroxyphenyl)-3-oxoprop-1-en-1-yl)phenyl 2-((tert-butoxycarbonyl)amino)-4-methylhexanoate]: the IC50 in test [1] is above 200 µM; in test [2] it was above 200 µM; in test [3], above 200 µM; in test [4] it was above 200 µM; in test [5] (read-out: IC50 PC-3M, 48 h), above 200 µM.

In the case of `CC(C)[C@H](NC(=O)OC(C)(C)C)C(=O)Oc1ccc(/C=C/C(=O)c2ccc(OC(=O)[C@@H](NC(=O)OC(C)(C)C)C(C)C)cc2O)cc1` [Compound 3, (E)-4-(3-(4-(((tert-butoxycarbonyl)valyl)oxy)-2-hydroxyphenyl)-3-oxoprop-1-en-1-yl)phenyl (tert-butoxycarbonyl)valinate], the IC50 is above 200 µM in test [1]; above 200 µM in test [2]; above 200 µM in test [3]; above 200 µM in test [4]; above 200 µM in test [5] (read-out: IC50 PC-3M, 48 h).

With `CC(C)(C)OC(=O)N1CCCC1C(=O)Oc1ccc(/C=C/C(=O)c2ccc(OC(=O)[C@@H]3CCCN3C(=O)OC(C)(C)C)cc2O)cc1` (stereo partly drawn) [Compound 4, (E)-2-(4-(3-(4-(((tert-butoxycarbonyl)prolyl)oxy)-2-hydroxyphenyl)-3-oxoprop-1-en-1-yl)phenyl) 1-(tert-butyl) pyrrolidine-1,2-dicarboxylate], the IC50 was above 200 µM in test [1]; above 200 µM in test [2]; above 200 µM in test [3]; above 200 µM in test [4]; above 200 µM in test [5] (read-out: IC50 PC-3M, 48 h).

On to `CN(CC(=O)Oc1ccc(/C=C/C(=O)c2ccc(OC(=O)CN(C)C(=O)OC(C)(C)C)cc2O)cc1)C(=O)OC(C)(C)C` [Compound 5, (E)-4-(3-(4-((N-(tert-butoxycarbonyl)-N-methylglycyl)oxy)-2-hydroxyphenyl)-3-oxoprop-1-en-1-yl)phenyl N-(tert-butoxycarbonyl)-N-methylglycinate], for which the IC50 in test [1] is above 200 µM; in test [2], above 200 µM; in test [3], above 200 µM; in test [4], above 200 µM; in test [5] (read-out: IC50 PC-3M, 48 h), above 200 µM.

As for `CC(C)(C)OC(=O)NC(C(=O)Oc1ccc(/C=C/C(=O)c2ccc(OC(=O)C(NC(=O)OC(C)(C)C)C3CCCC3)cc2O)cc1)C1CCCC1` [Compound 6, 4-((E)-3-(4-((S)-2-((tert-butoxycarbonyl)amino)-2-cyclopentylacetoxy)-2-hydroxyphenyl)-3-oxoprop-1-en-1-yl)phenyl(R)-2-((tert-butoxycarbonyl)amino)-2-cyclopentylacetate], the IC50 in test [1] was above 200 µM; in test [2], above 200 µM; in test [3] it was above 200 µM; in test [4] it was above 200 µM; in test [5] (read-out: IC50 PC-3M, 48 h), above 200 µM.

With `CC(C)(C)OC(=O)NC(C(=O)Oc1ccc(/C=C/C(=O)c2ccc(O)cc2O)cc1)C1CCCC1` [Compound 7, (E)-4-(3-(2,4-dihydroxyphenyl)-3-oxoprop-1-en-1-yl)phenyl(R)-2-((tert-butoxycarbonyl)amino)-2-cyclopentylacetate], the IC50 is 29.8 µM in test [1]; 28.7 µM in test [2]; 27.4 µM in test [3]; 27.9 µM in test [4]; 33.2 µM in test [5] (read-out: IC50 PC-3M, 48 h).

`CC(C)(C)OC(=O)NC(C(=O)Oc1ccc(/C=C/C(=O)c2ccc(OC(=O)C(NC(=O)OC(C)(C)C)C3CCCCC3)cc2O)cc1)C1CCCCC1` [Compound 8, 4-((E)-3-(4-((R)-2-((tert-butoxycarbonyl)amino)-2-cyclohexylacetoxy)-2-hydroxyphenyl)-3-oxoprop-1-en-1-yl)phenyl(S)-2-((tert-butoxycarbonyl)amino)-2-cyclohexylacetate]: the IC50 is above 200 µM in test [1]; above 200 µM in test [2]; above 200 µM in test [3]; above 200 µM in test [4]; above 200 µM in test [5] (read-out: IC50 PC-3M, 48 h).

For the compound `C[C@H](NC(=O)OC(C)(C)C)C(=O)Oc1ccc(C(=O)/C=C/c2ccc(OC(=O)[C@@H](C)NC(=O)OC(C)(C)C)cc2)c(O)c1` [Compound 10, 4-((E)-3-(4-(((tert-butoxycarbonyl)-D-alanyl)oxy)phenyl)acryloyl)-3-hydroxyphenyl (tert-butoxycarbonyl)-L-alaninate], the IC50 was above 200 µM in test [1]; above 200 µM in test [2]; above 200 µM in test [3]; above 200 µM in test [4]; above 200 µM in test [5] (read-out: IC50 PC-3M, 48 h).

On to `CC(NC(=O)OC(C)(C)C)C(=O)Oc1ccc(C=CC(=O)c2ccc(O)cc2O)cc1` [Compound 11, (E)-4-(3-(2,4-dihydroxyphenyl)-3-oxoprop-1-en-1-yl)phenyl(tert-butoxycarbonyl)-D-alaninate], for which the IC50 in test [1] was found to be 160 µM; in test [2], 99.9 µM; in test [3], 100 µM; in test [4] it was 87.6 µM; in test [5] (read-out: IC50 PC-3M, 48 h), 122 µM.

Regarding `CC(C)(C)OC(=O)NC(CCc1ccccc1)C(=O)Oc1ccc(C(=O)/C=C/c2ccc(OC(=O)[C@H](CCc3ccccc3)NC(=O)OC(C)(C)C)cc2)c(O)c1` (stereo partly drawn) [Compound 12, 4-((E)-3-(4-((2-((tert-butoxycarbonyl)amino)-4-phenylbutanoyl)oxy)-2-hydroxyphenyl)-3-oxoprop-1-en-1-yl)phenyl(2S)-2-((tert-butoxycarbonyl)amino)-4-phenylbutanoate], the IC50 in test [1] was above 200 µM; in test [2] it was above 200 µM; in test [3], above 200 µM; in test [4], above 200 µM; in test [5] (read-out: IC50 PC-3M, 48 h), above 200 µM.

For `CC(C)(C)OC(=O)N[C@@H](CCc1ccccc1)C(=O)Oc1ccc(/C=C/C(=O)c2ccc(O)cc2O)cc1` [Compound 13, (E)-4-(3-(2,4-dihydroxyphenyl)-3-oxoprop-1-en-1-yl)phenyl(S)-2-((tert-butoxycarbonyl)amino)-4-phenylbutanoate], the IC50 was 60.5 µM in test [1]; 29.2 µM in test [2]; 48.9 µM in test [3]; 35.3 µM in test [4]; 37.4 µM in test [5] (read-out: IC50 PC-3M, 48 h).

In the case of `CC(C)(C)OC(=O)N[C@@H](Cc1ccccc1Br)C(=O)Oc1ccc(C(=O)/C=C/c2ccc(OC(=O)[C@@H](Cc3ccccc3Br)NC(=O)OC(C)(C)C)cc2)c(O)c1` [Compound 14, 4-((E)-3-(4-(((S)-3-(2-bromophenyl)-2-((tert-butoxycarbonyl)amino)propanoyl)oxy)-2-hydroxyphenyl)-3-oxoprop-1-en-1-yl)phenyl(R)-3-(2-bromophenyl)-2-((tert-butoxycarbonyl)amino)propanoate], the IC50 in test [1] is above 200 µM; in test [2] it was above 200 µM; in test [3], above 200 µM; in test [4] it was above 200 µM; in test [5] (read-out: IC50 PC-3M, 48 h) it was above 200 µM.

In the case of `CC(C)(C)OC(=O)N[C@H](Cc1ccccc1Br)C(=O)Oc1ccc(/C=C/C(=O)c2ccc(O)cc2O)cc1` [Compound 15, (E)-4-(3-(2,4-dihydroxyphenyl)-3-oxoprop-1-en-1-yl)phenyl(R)-3-(2-bromophenyl)-2-((tert-butoxycarbonyl)amino)propanoate], the IC50 was 50.9 µM in test [1]; 27.4 µM in test [2]; 42.6 µM in test [3]; 38.4 µM in test [4]; 30.2 µM in test [5] (read-out: IC50 PC-3M, 48 h).

On to `CC(C)(C)OC(=O)N[C@@H](Cc1ccccc1Cl)C(=O)Oc1ccc(C(=O)/C=C/c2ccc(OC(=O)[C@@H](Cc3ccccc3Cl)NC(=O)OC(C)(C)C)cc2)c(O)c1` [Compound 16, 4-((E)-3-(4-(((S)-2-((tert-butoxycarbonyl)amino)-3-(2-chlorophenyl)propanoyl)oxy)-2-hydroxyphenyl)-3-oxoprop-1-en-1-yl)phenyl(R)-2-((tert-butoxycarbonyl)amino)-3-(2-chlorophenyl)propanoate], for which the IC50 is above 200 µM in test [1]; above 200 µM in test [2]; above 200 µM in test [3]; above 200 µM in test [4]; above 200 µM in test [5] (read-out: IC50 PC-3M, 48 h).

For the compound `CC(C)(C)OC(=O)N[C@H](Cc1ccccc1Cl)C(=O)Oc1ccc(/C=C/C(=O)c2ccc(O)cc2O)cc1` [Compound 17, (E)-4-(3-(2,4-dihydroxyphenyl)-3-oxoprop-1-en-1-yl)phenyl(R)-2-((tert-butoxycarbonyl)amino)-3-(2-chlorophenyl)propanoate], the IC50 was 60.2 µM in test [1]; 30.4 µM in test [2]; 40.7 µM in test [3]; 33.2 µM in test [4]; 37.4 µM in test [5] (read-out: IC50 PC-3M (text), 48 h); 38.1 µM in test [5] (read-out: IC50 PC-3M, 48 h).
